Measured values: patent publication US6893829B2, “Human leukocyte 12-lipoxygenase and its role in the pathogenesis of disease states” (City of Hope, priority 1992, dated 2005)

Tests used:
MO binding to HAEC = assay: Monocyte binding to human aortic endothelial cells; type: cell-based; conditions: HAEC in 5.5 mM glucose, 10^−10M; control 66±6
Experimental: The rate of atherosclerosis is accelerated in humans with diabetes mellitus (DM). Applicants recently published evidence that high glucose (HG) exposure of human aortic endothelial cells (HAEC) selectively increases monocyte (MO) but not neutrophil binding (56). HG exposure to EC can increase arachidonic acid (AA) release and lipoxygenase (LO) production formation. In the current study, applicants evaluated the role of 12- and 15-LO products in MO binding to HAEC. Culture of HAEC in HG (25 mM) for two passages increased MO binding compared to cells maintained in 5.5 mM glucose (239±30 cells/field HG vs 111±7, p<0.01). Phenidone (10^−6M), an inhibitor of the 12-LO pathway (50 percent inhibition of HG-induced binding, p<0.05). […] 12(S)-HETE added to HAEC cultured in 5.5 mM glucose increased MO binding (66±6 cells/field control vs 114±4 12-HETE 10^−10M, p<0.01). […] In summary, (1) elevated glucose increases MO binding to HAEC and this effect can be reduced by blockade of the LO pathway; (2) 12 but not 15-LO products, can increase MO binding.

RINm5F cells = assay: DNA synthesis (3H-thymidine incorporation) in RINm5F cells; type: cell-based, rat; conditions: 24 hours, 12-HETE 10^−9M
Experimental: FIG. 11 illustrates the effects of 12-LO products on DNA synthesis in the insulin-producing rat beta cell line, RINm5F. DNA synthesis was studied using ^3H-thymidine incorporation (luCi/ml) added for the last six hours (18-24 hours of experiment). The LO products were added to the cells in complete growth media for 24 hours.
Applicants have discovered that direct addition of the 12-LO products 12-S-HETE or 12-HPETE directly decreases cellular growth as reflected by decreased ^3H thymidine incorporation or DNA synthesis in the rat pure beta cell line RIN-M5F.

JNK = JNK activity in CHO-AT1a cells; type: cell-based, Chinese hamster
Experimental: The plasmid pGEX-cJun 1/79 (Dept. Pharmacol. UCSD, La Jolla) is a GST-cJun (1-79) expression vector encoding amino acids (1-79) of cJun. The GST fusion protein expression vector was transformed into E. Coli. Protein was induced with 0.1 mM IPTG and purified by affinity binding to glutathione-agarose beads. Unstimulated or stimulated cells were lysed into WCEB (25 mM HEPES, pH 7.7, 03.M Nacl, 15 mM MgCl2, 02.mM EDTA and 0.1% triton X-100). About 50 μg protein extract was incubated with GST-cJun+GSH agarose overnight at 4° C. Phosphorylation was carried out at 30° C. for 20 minutes in the presence of 20 mM HEPES, pH 7.5, 20 mM b-glycerophosphate, 10 mM p-nitrophenolphosphate, 10 mM MgCl2, 10 mM DDT, 50 μg Na3VO4, 20 μM ATP (cold) and about 0.5 μl of new gamma ^32P-ATP. After boiling with electrophoresis sample buffer, the supernatants were analyzed on 12% SDS-PAGE. JNK activity was also measured by immunoprecipitation method using an anti-JNK antibody (Parmingen Co., San Diego) and then activities were measured using 2 μg of GST-cJun (1-79) as substrate as described in Cell, 81:1147-1157 (1995).
(§1) It has been discovered that the administration of AII results in biphasic activation of MAP kinase (all of the MAP kinase experiments were conducted in CHO-AT1a cells—AII receptor AT1a cDNA transfected Chinese hamster ovary cells).

ERK = ERK activity in CHO-AT1a cells; type: cell-based, Chinese hamster; conditions: 12-HETE 10^−7M, peaks at 5 minutes and 3-4.5 hours
Experimental: ERK activity was evaluated by the substrate-SDS-polyacrylamide gel method described in Anal. Biochem., 183:139-143 (1989). Confluent cells in […] were made quiescent in serum-free medium and then treated with agonists for various time periods. The cells were then lysed in lysis buffer (1% NP40, 1% sodium deoxycholate, 0.1% SDS, 100 mM NaCl, 50 mM Tris, 10 mM EDTA, 1 mM EGTA, aprotinin, […], 0.1 mM PMSF and 1 mM sodium orthovanadate, pH 7.4). Lysates were centrifuged to pellet nuclei and the cell extracts ([…]) were subjected to electrophoresis on SDS-polyacrylamide gels (10%) containing myelin basic protein (0.5 mg/ml) as an ERK substrate. The SDS was then washed, followed by denaturation, renaturation and protein phosphorylation on the gel with [^32P] ATP.
as §1

[1] = test system: beta sub-unit of the human insulin receptor; assay: Insulin receptor phosphorylation in rat-1-fibroblasts containing the human insulin receptor; type: cell-based; conditions: 12-HETE 10^−7M
Experimental: 7. Baicalein, a selective 12-LO inhibitor, can prevent glucose-induced insulin resistance. To perform these studies, applicants cultured rat-1-fibroblasts that have been engineered to contain the human insulin receptor for ten days in high glucose (25 mM). For the last 24 hours, the cells were cultured with 10^−6M baicalein. The marked bands represent the phosphorylated beta sub-unit of the human insulin receptor (FIG. 23). As the band becomes lighter, it represents reduced insulin action. Lane 1 represents the insulin receptor phosphorylation in normal glucose (5.5 mM) vs the reduced insulin action in lane 5 (25 mM glucose).

[2] = test system: VEGF protein in MCF-7 cells; assay: VEGF protein expression in breast cancer cells (immunoblot); type: cell-based, human
Experimental: FIG. 8 illustrates the dose-dependent effect of platelet-derived growth factor (PDGF) on vascular endothelial growth factor (VEGF) protein (42 kD) expression in MCF-7 breast cancer cells. Nearly confluent MCF-7 cells were serum starved for 24 hours by placing in DME medium+0.4% FCS and 0.2% BSA. This medium was then freshly replaced and the cells incubated for another 24 hours with PDGF. At the end of the incubation, the cell monolayers were washed with ice-cold PBS, scraped into PBS and pelleted by centrifugation. The cell pellets were then lysed and equal amounts of protein (50 μg) subjected to electrophoresis and immunoblotting to detect VEGF using a specific antibody from Santa Cruz Biotechnology. Detection was by a chemiluminiscent technique.
FIG. 9 illustrates the effect of epidermal growth factor (EGF) and the 12-lipoxygenase product 12-HETE on VEGF protein expression in the MCF-7 breast cancer cell line MCF-7. MCF-7 cells were treated with EGF and 12-HETE for 24 hours and VEGF protein identified as described in the legend to FIG. 8.

[3] = test system: smooth muscle cell migration; conditions: cited from earlier work
[4] = test system: VEGF in vascular smooth muscle cells (VSMC); assay: VEGF protein, mRNA and secretion in VSMC (Western, Northern, EIA); type: cell-based, Porcine and human
Experimental: In addition to the work reflected in FIGS. 8-10, it has now been discovered that AII, 12-HETE and hyperglycemia (HG) increase VEGF production in vascular smooth muscle cells (VSMC). Porcine and human VSMC were cultured for at least two passages under normal glucose (NG, 5.5 mM) or under HG conditions. VEGF protein expression was determined by Western blotting and VEGF mRNA by Northern blots. HG alone increased the level of VEGF mRNA (2.8-fold) and protein (3.2-fold). […] In addition, HG increased the secretion of VEGF into the medium as measured by a specific EIA (56.2±4 ng/ml NG vs 73±5 HG, p<0.02).

JAK1 and JAK2 = assay: JAK activity in CHO-AT1a cells (phosphotyrosine immunoprecipitation, JAK1/JAK2 immunoblot); type: cell-based, Chinese hamster; conditions: 12-HETE 10^−7M, 10 hours
Experimental: It has further been discovered that 12-HETE induces stimulation of JAK activity. CHO-AT1a cells were treated with 12-HETE (10^−7M) for 10 hours, immunoprecipitated with a phosphotyrosine antibody and immunoblotted using specific JAK1 and JAK2 antibodies.

In the case of `CCCCC/C=C\C[C@@H](O)/C=C/C=C\C/C=C\CCCC(=O)O` [12-HETE, 12-Hydroxyeicosatetraenoic Acid], the MO binding (MO binding to HAEC) is reported as 114±4 cells/field, the “3H-thymidine incorporation (DNA synthesis)” value (RINm5F cells) is reported as “reduced” and the “stimulation of JNK activity, first peak” value (JNK; 12-HETE 10^−7M, 30 minutes) is reported as 2-3 fold. For the same compound, the “stimulation of JNK activity, second peak” value (JNK; 12-HETE 10^−7M, 3 hours) was 2.5-5 fold, the “lowest concentration stimulating JNK activity” value (JNK; FIG. 29) was 10^−9 M and the “stimulation of ERK activity” value (ERK) was “biphasic stimulation”. The “basal insulin receptor phosphorylation” value [1] was “did not directly alter”, the “insulin-induced receptor phosphorylation of the beta subunit” value [1] was “markedly reduced” and the VEGF protein expression ([2]; MCF-7, 24 hours) was “more potent than EGF”. The VEGF protein expression ([2]; MCF-7 and MDA MB, 12-HETE 10^−7M and 10^−6M) was “increases VEGF protein expression”, the “lowest concentration leading to smooth muscle cell migration” value [3] was 10^−12 M and the “increase in VEGF secretion (EIA)” value [4] was 1.4 fold. For the same compound, the “expression of VEGF protein and mRNA” value ([4]; 12-HETE 10^−8M and 10^−7M, 4 hours, NG and HG) was “increased the expression” and the JAK activity (JAK1 and JAK2) was “increased JAK activity”.
